Source: ChEMBL document CHEMBL1201862, “PubChem BioAssay data set” (2004)
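Tested at 5 concentrations; 48 h exposure; 96-well plates; endpoints linearly interpolated, else capped at highest concentration. GI50 marks 50% less growth.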 Calls of active or inactive are those of the source. No stated cut-off is given here; in the data, active = GI50 up to about 1.1 µM and inactive = higher.

Columns and labels:
Assay in all cases: DTP human tumour cell line panel, 48 h
NCI-H226 = test system: NCI-H226
Malme-3M = test system: Malme-3M
A549 = test system: A549
NCI/ADR-RES = test system: NCI/ADR-RES
HCT-116 = test system: HCT-116
XF498 = test system: XF498
SK-MEL-28 = test system: SK-MEL-28
UO-31 = test system: UO-31
SNB-75 = test system: SNB-75
HOP-18 = test system: HOP-18
NCI-H522 = test system: NCI-H522
HL-60 = test system: HL-60
OVCAR-3 = test system: OVCAR-3
SF-268 = test system: SF-268
EKVX = test system: EKVX
SW-620 = test system: SW-620
U-251 = test system: U-251
DLD-1 = test system: DLD-1
SK-MEL-5 = test system: SK-MEL-5
SK-MEL-2 = test system: SK-MEL-2
NCI-H23 = test system: NCI-H23
HOP-92 = test system: HOP-92
KM12 = test system: KM12
K562 = test system: K562
IGROV-1 = test system: IGROV-1
UACC-62 = test system: UACC-62
SF-539 = test system: SF-539
SK-OV-3 = test system: SK-OV-3
DMS-273 = test system: DMS-273
OVCAR-5 = test system: OVCAR-5
SNB-19 = test system: SNB-19
RXF 393 = test system: RXF 393
HCT-15 = test system: HCT-15
OVCAR-4 = test system: OVCAR-4
NCI-H460 = test system: NCI-H460
OVCAR-8 = test system: OVCAR-8
CAKI-1 = test system: CAKI-1
KM-20L2 = test system: KM-20L2
HT-29 = test system: HT-29
HOP-62 = test system: HOP-62
LOX IMVI = test system: LOX IMVI
SN12C = test system: SN12C
SNB-78 = test system: SNB-78
MCF7 = test system: MCF7
RPMI-8226 = test system: RPMI-8226
A498 = test system: A498
SF-295 = test system: SF-295
CCRF-CEM = test system: CCRF-CEM
UACC-257 = test system: UACC-257
MOLT-4 = test system: MOLT-4
COLO 205 = test system: COLO 205
HCC 2998 = test system: HCC 2998
786-0 = test system: 786-0
LXFL 529 = test system: LXFL 529
M14 = test system: M14
SR = test system: SR
TK-10 = test system: TK-10
M19-MEL = test system: M19-MEL
RXF 631 = test system: RXF 631
ACHN = test system: ACHN

In the case of `CN(C)CCNc1c2ccccc2c2c3c(cccc13)C(=O)N(CCN(C)C)C2=O`, the GI50 (NCI-H226) is reported as 1.82 µM (inactive), the GI50 (Malme-3M) is reported as 0.348 µM (active) and the GI50 (A549) is reported as 0.193 µM (active). The GI50 (NCI/ADR-RES) was 0.0627 µM (active), the GI50 (HCT-116) was 0.0254 µM (active) and the GI50 (XF498) was 0.267 µM (active). For the same molecule, the GI50 (SK-MEL-28) was 0.0735 µM (active), the GI50 (UO-31) was 1.61 µM (inactive) and the GI50 (SNB-75) was 0.176 µM (active). The GI50 (HOP-18) was 0.188 µM (active), the GI50 (NCI-H522) was 0.123 µM (active) and the GI50 (HL-60) was 0.229 µM (active). For the same molecule, the GI50 (OVCAR-3) was 0.112 µM (active), the GI50 (SF-268) was 0.22 µM (active) and the GI50 (EKVX) was 0.332 µM (active). For the same molecule, the GI50 (SW-620) was 0.0532 µM (active), the GI50 (U-251) was 0.121 µM (active) and the GI50 (DLD-1) was 0.0578 µM (active). The GI50 (SK-MEL-5) was 0.697 µM (active), the GI50 (SK-MEL-2) was 0.188 µM (active) and the GI50 (NCI-H23) was 0.0904 µM (active). The GI50 (HOP-92) was 0.138 µM (active), the GI50 (KM12) was 0.232 µM (active) and the GI50 (K562) was 0.0522 µM (active). The GI50 (IGROV-1) was 0.0968 µM (active), the GI50 (UACC-62) was 0.308 µM (active) and the GI50 (SF-539) was 0.374 µM (active). The GI50 (SK-OV-3) was 0.221 µM (active), the GI50 (DMS-273) was 0.122 µM (active) and the GI50 (OVCAR-5) was 0.224 µM (active). For the same molecule, the GI50 (SNB-19) was 0.28 µM (active), the GI50 (RXF 393) was 0.0232 µM (active) and the GI50 (HCT-15) was 0.0615 µM. For the same molecule, the GI50 (OVCAR-4) was 0.0455 µM (active), the GI50 (NCI-H460) was 0.0448 µM (active) and the GI50 (OVCAR-8) was 0.129 µM (active). For the same molecule, the GI50 (CAKI-1) was 0.423 µM (active), the GI50 (KM-20L2) was 0.103 µM (active) and the GI50 (HT-29) was 0.029 µM (active). For the same molecule, the GI50 (HOP-62) was 1.67 µM (inactive), the GI50 (LOX IMVI) was 0.071 µM (active) and the GI50 (SN12C) was 0.0883 µM (active). The GI50 (SNB-78) was 0.151 µM (active), the GI50 (MCF7) was 0.0416 µM (active) and the GI50 (RPMI-8226) was 0.288 µM (active). The GI50 (A498) was 0.641 µM (active), the GI50 (SF-295) was 0.069 µM (active) and the GI50 (CCRF-CEM) was 0.111 µM (active). The GI50 (UACC-257) was 0.49 µM (active), the GI50 (MOLT-4) was 0.0625 µM (active) and the GI50 (COLO 205) was 0.0755 µM (active). The GI50 (HCC 2998) was 0.152 µM (active).
For `CS/C(c1ccccc1)=[N+](/C)[O-]`, the GI50 (Malme-3M) was > 100 µM (inactive), the GI50 (A549) was > 100 µM (inactive) and the GI50 (786-0) was > 100 µM (inactive). For the same molecule, the GI50 (HCT-116) was > 80 µM (inactive), the GI50 (LXFL 529) was > 100 µM (inactive) and the GI50 (XF498) was > 100 µM (inactive). The GI50 (M14) was > 100 µM (inactive), the GI50 (SK-MEL-28) was > 100 µM (inactive) and the GI50 (UO-31) was > 100 µM (inactive). For the same molecule, the GI50 (SNB-75) was > 64.6 µM (inactive), the GI50 (HOP-18) was > 100 µM (inactive) and the GI50 (NCI-H522) was > 100 µM (inactive). For the same molecule, the GI50 (HL-60) was > 100 µM (inactive), the GI50 (OVCAR-3) was > 100 µM (inactive) and the GI50 (SF-268) was > 100 µM (inactive). For the same molecule, the GI50 (EKVX) was > 100 µM (inactive), the GI50 (SW-620) was > 100 µM (inactive) and the GI50 (U-251) was > 100 µM (inactive). The GI50 (DLD-1) was > 61.5 µM (inactive), the GI50 (SK-MEL-5) was > 100 µM (inactive) and the GI50 (SR) was 24.2 µM (inactive). The GI50 (SK-MEL-2) was > 100 µM (inactive), the GI50 (NCI-H23) was > 100 µM (inactive) and the GI50 (HOP-92) was > 100 µM (inactive). For the same molecule, the GI50 (KM12) was > 100 µM (inactive), the GI50 (TK-10) was > 100 µM (inactive) and the GI50 (K562) was > 67.9 µM (inactive). For the same molecule, the GI50 (M19-MEL) was > 100 µM (inactive), the GI50 (IGROV-1) was > 100 µM (inactive) and the GI50 (UACC-62) was > 100 µM (inactive). For the same molecule, the GI50 (SF-539) was > 100 µM (inactive), the GI50 (SK-OV-3) was > 100 µM (inactive) and the GI50 (OVCAR-5) was > 100 µM (inactive). For the same molecule, the GI50 (SNB-19) was > 100 µM (inactive), the GI50 (RXF 393) was > 100 µM (inactive) and the GI50 (HCT-15) was 18.1 µM. The GI50 (OVCAR-4) was > 100 µM (inactive), the GI50 (NCI-H460) was > 52.2 µM (inactive) and the GI50 (RXF 631) was > 100 µM (inactive). For the same molecule, the GI50 (OVCAR-8) was > 100 µM (inactive), the GI50 (CAKI-1) was > 100 µM (inactive) and the GI50 (KM-20L2) was > 100 µM (inactive). For the same molecule, the GI50 (HT-29) was > 75.9 µM (inactive), the GI50 (HOP-62) was > 100 µM (inactive) and the GI50 (ACHN) was > 100 µM (inactive). For the same molecule, the GI50 (LOX IMVI) was > 43.3 µM (inactive), the GI50 (SN12C) was > 100 µM (inactive) and the GI50 (SNB-78) was > 100 µM (inactive). The GI50 (RPMI-8226) was > 56.2 µM (inactive), the GI50 (A498) was > 100 µM (inactive) and the GI50 (SF-295) was > 100 µM (inactive). The GI50 (CCRF-CEM) was > 51.2 µM (inactive), the GI50 (UACC-257) was > 100 µM (inactive) and the GI50 (MOLT-4) was > 100 µM (inactive). For the same molecule, the GI50 (COLO 205) was > 43.3 µM (inactive) and the GI50 (HCC 2998) was > 100 µM (inactive).
